Laboratory results published in patent US6521608B1, “Vitamin D and its analogs in the treatment of tumors and other hyperproliferative disorders” (Oregon Health & Science University, priority 1998, dated 2003).
Values joined by “and” are separate entries in the source; they are usually repeats but may differ in a detail not shown here. Equal entries are not always repeated. Where two headings read alike, the source gives them in different places.

Experiments:
[1] = system: LNCaP human prostate cancer cells; conditions: LNCaP cells in vitro, Skowronski et al., cited from earlier work
[2] = Trial of weekly pulse oral calcitriol: toxicities graded by NCI Common Toxicity Criteria; assay type: in vivo, human
Procedure: (§1) Eligibility criteria included histologically confirmed malignancy refractory to standard therapy; age ≧18 years; expected survival of >2 months; ECOG performance status ≦2; hematocrit ≧30; serum creatinine ≦1.2 mg/dL; serum calcium ≦10.5 mg/dL; serum phosphate <4.2 mg/dL; ALT ≦60 IUIL; total serum bilirubin <2 mg/dL. Exclusion criteria included pregnancy, history of hypercalcemia, kidney stones, heart failure or significant heart disease including myocardial infarction in the last 3 months, known cardiac ejection fraction less than 30%, current digoxin therapy, thiazide diuretic therapy within 7 days, bisphosphonate treatment within 4 weeks, systemic steroid therapy within 2 weeks, and unwillingness or inability to stop all magnesium containing antacids, bile resin binding drugs, or calcium supplements for the duration of the study.
(§2) Patients were asked to maintain a reduced calcium diet for the four treatment weeks, with a goal of less than 500 mg per day, as described in Example 1. Calcitriol (Rocaltrol®, Roche Pharmaceuticals) was given orally once a week for four weeks. Each weekly dose was given in four divided doses given hourly over four hours. The starting dose was 0.06 μg/kg.
(§3) Complete blood count, serum creatinine, total serum bilirubin, ALT, alkaline phosphatase were monitored weekly. Serum calcium and phosphate were checked on the treatment day (day 1), and on days 2 and 3. Twenty-four hour urinary calcium excretion was measured on day 2. The 1,25-dihydroxyvitaunin D levels were measured by ^125I radioimmunoassay (Incstar, Stillwater, Minn.) and by a radioreceptor assay using calf thymus 1,25-dihydroxyvitamin D receptor (Endocrine Sciences, Calabasas Hills, Calif.). Peak levels were measured two hours after all the pills had been ingested. Trough levels were measured approximately 48 hours later.
After completing the four week treatment period, patients were monitored for four additional weeks. Serum calcium was checked in weeks 5 and 7 and tumor measurements were obtained in week 7. […] Response was assessed according to WHO guidelines. […]

[3] = Trial of weekly pulse oral calcitriol: plasma/serum 1,25-dihydroxyvitamin D levels (radioimmunoassay, radioreceptor assay); assay type: in vivo, human; design: Mean 48 hour 1,25-dihydroxyvitamin D level: unit not given here; conditions: for Mean peak 1,25-dihydroxyvitamin D level: peak two hours after all pills; for Mean 48 hour 1,25-dihydroxyvitamin D level: trough approximately 48 hours later
Procedure: In this example a person with metastatic malignant melanoma of the right jaw received a dose of 37 mcg of calcitriol (Rocaltrol, Roche) administered as 74 tablets (0.5 mcg each tablet) divided into four nearly equal doses given in hour one, two, three and four. The patient received this same therapy on day 1, 8, 15 and 22, and observed until at least day 56. The level of calcitriol in a plasma sample obtained two hours after the last dose of calcitriol (on week one) was determined using a commercial assay at Endocrine Sciences, Inc. The level was 1826 pg/ml, compared to the range for calcitriol levels in normal controls being 21 to 65 pg/ml.
as §2, §3

[4] = Trial of weekly pulse oral calcitriol: serum calcium, serum phosphate, 24 hour urinary calcium; assay type: in vivo, human; conditions: for Mean serum phosphate: 3.43 (SD 0.56) prior to treatment; for Mean serum calcium: 9.55 (SD 0.57) prior to treatment
Procedure: as §2, §3

[5] = relative to calcitriol = 1; cited from earlier work
[6] = system: breast carcinoma metastatic to the skeleton; assay: Case history: treatment of breast cancer with weekly pulse calcitriol; assay type: in vivo, human; conditions: 11 mcg po on day 1, 8, 15, 22; for serum tumor marker CA15-3: 445 pre-treatment
From the text: In this example, a person with breast carcinoma metastatic to numerous sites in the skeleton received a dose of 11 mcg of calcitriol (Rocaltrol, Roche) administered as […] (0.5 mcg each tablet) divided into four nearly equal doses given in hour one, two, three and four. The patient received this same therapy on day 1, 8, 15 and 22, and then was observed on study until day 56, and tolerated the treatment well. […] Objective benefits included a progressive decrease in the serum tumor marker CA15-3 from 445 (pre-treatment) to 365 (day 27), 365 (day 48) and 320 (day 70). […] No new lesions or pathologic fractures identified were identified by day 64.

[7] = system: malignancy refractory to standard therapy; assay: Trial of weekly pulse oral calcitriol: tumor response (WHO guidelines, tumor markers); assay type: in vivo, human
Procedure: as §1, §2
After completing the four week treatment period, patients were monitored for four additional weeks. Serum calcium was checked in weeks 5 and 7 and tumor measurements were obtained in week 7. All toxicities were graded according to NCI Common Toxicity Criteria. Response was assessed according to WHO guidelines.

myelodysplastic syndrome = conditions: 2 mcg daily for 8 weeks or longer, cited from earlier work
[8] = system: hormone refractory prostate cancer; conditions: daily oral dose of 0.5-1.5 mcg, fourteen patients; cited from earlier work
[9] = cited from earlier work
ovarian cancer = conditions: continuous dose; cited from earlier work
[10] = single oral dose of 4 mcg, healthy volunteers, Mason et al.

## C=C1/C(=C\C=C2/CCC[C@]3(C)[C@@H]([C@H](C)CCCC(C)(C)O)CC[C@@H]23)C[C@@H](O)C[C@@H]1O [calcitriol, 1α,25-dihydroxycholecalciferol]
[1]
  concentration giving measurable growth inhibition: 0.1 nM
[1]; read-out: concentration giving 50% growth inhibition
  IC50: 1 nM
[2]; 15 patients, 20 cycles
  deaths in the trial: No deaths occurred
[2]; given intermittently
  intermittent dose tolerated without hypercalcemia: ≤ 0.48 µg/kg
[2]; in vivo
  dose-limiting hypercalcemic toxicity: No patient developed dose-limiting hypercalcemic toxicity
[3]; 48 hours, normal range 0.05-0.16 nM
  Serum 1,25-dihydroxyvitamin D trough levels: returned to normal or near normal levels by 48 hours
[3]; dose level 0.06 μg/kg po over four hours, 1 patient
  Mean peak 1,25-dihydroxyvitamin D level: 0.71 nM
[3]; dose level 0.06 μg/kg po
  Mean 48 hour 1,25-dihydroxyvitamin D level: 0.27
[3]; dose level 0.24 μg/kg po over four hours, 1 patient
  Mean peak 1,25-dihydroxyvitamin D level: 2.27 nM
[3]; dose level 0.24 μg/kg po
  Mean 48 hour 1,25-dihydroxyvitamin D level: 0.21
[3]; dose level 0.48 μg/kg po over four hours, 2 patients
  Mean peak 1,25-dihydroxyvitamin D level: 4.11 nM
[3]; dose level 0.48 μg/kg po
  Mean 48 hour 1,25-dihydroxyvitamin D level: 0.23
[3]; dose level 0.80 μg/kg po over four hours, 1 patient
  Mean peak 1,25-dihydroxyvitamin D level: 3.53 nM
[3]; dose level 0.96 μg/kg po over four hours, 1 patient
  Mean peak 1,25-dihydroxyvitamin D level: 3.83 nM
[3]; dose level 1.60 μg/kg po over four hours, 2 patients
  Mean peak 1,25-dihydroxyvitamin D level: 3.65 nM
[3]; dose level 1.92 μg/kg po over four hours, 1 patient
  Mean peak 1,25-dihydroxyvitamin D level: 3.34 nM
[3]; dose level 2.00 μg/kg po over four hours, 6 patients
  Mean peak 1,25-dihydroxyvitamin D level: 4.07 nM
[3]; dose level 2.00 μg/kg po
  Mean 48 hour 1,25-dihydroxyvitamin D level: 0.26
[3]; dose level 2.80 μg/kg po over four hours, 2 patients
  Mean peak 1,25-dihydroxyvitamin D level: 2.96 nM
[3]; dose levels up to 2.80 μg/kg po
  effect of dose escalation beyond 0.48 μg/kg on peak calcitriol levels: did not result in further increases in peak calcitriol levels
[3]; male, human, plasma, melanoma patient, 37 mcg po in four hourly doses, sample two hours after the last dose, week one, normal controls 21 to 65 pg/ml, read-out: level of calcitriol in plasma
  concentration at 2 h: 1.83 ng/mL
[3]; pulsed weekly administration
  Peak blood levels of calcitriol above the upper limit of normal: about 25 fold
[3]; weekly pulse schedule
  clearance of calcitriol from the blood: essentially completely cleared from the blood by day 3
[3]; weekly pulse schedule, highest level seen
  peak blood calcitriol levels in patients: up to 8.9 nM
[4]; 37 mcg po on day 1, 8, 15, 22
  serum calcium and other chemical and hematological parameters, melanoma patient: remained normal
[4]; 24 hours after dose, normal range 2.2-4.2
  Mean serum phosphate: 3.98 (SD 0.57) mg/dL
[4]; 24 hours after dose, normal range 8.5-10.5
  Mean serum calcium: 9.76 (SD 0.63) mg/dL
[4]; 48 hours after dose, p<0.0001
  Mean serum phosphate: 3.86 (SD 0.53) mg/dL
[4]; 48 hours after dose, p=0.0002
  Mean serum calcium: 9.88 (SD 0.68) mg/dL
[4]; no intervention
  time for calcium levels above the normal range to return to normal: ≤ 2 days
[4]; on treatment, day 2 of each treatment week, 44-292 prior to treatment
  24 hour urinary calcium excretion, range: 59 to 594 mg
[4]; on treatment, day 2 of each treatment week, 130 (SD 62) prior to treatment, normal range 100-300
  Mean 24 hour urinary calcium excretion: 263 (SD 125) mg
[5]
  calcemic index (CI): 1
[6]
  Radiologic evaluation of areas of known bony involvement: progressive sclerosis of multiple lesions in the pelvis and right hip
  Subjective beneficial effects: a reduction in pain and in analgesia required
[6]; day 27
  serum tumor marker CA15-3: 365
[6]; day 48
  serum tumor marker CA15-3: 365
[6]; day 70
  serum tumor marker CA15-3: 320
[7]; hepatocellular carcinoma patient, two cycles (0.80 and 1.60 μg/kg)
  decline in serum AFP level: 70%
[7]; of eight patients
  patients with measurable disease with evidence of progressive disease: three
[7]; of seven patients
  patients without measurable disease with tumor marker or clinical evidence of progressive disease: three
[7]; two cycles of therapy, rapidly rising PSA prior to enrollment
  PSA course in a prostate cancer patient: stable PSA for the entire 16 weeks
[7]; weekly pulse calcitriol
  patients without measurable disease with no evidence of progression: Four of seven
[7]; weekly pulse calcitriol, tumor measurements week 7
  patients with measurable disease who had stable disease: Five of eight
Myelodysplastic syndrome; 18 patients
  patients who experienced symptomatic hypercalcemia: 4
Myelodysplastic syndrome
  patients with minor and transient improvements in the peripheral blood counts: Eight of 18
[8]
  patients who experienced hypercalcemia: Thirteen
  response: no significant response was demonstrated
[9]; 2 mcg single oral dose, healthy volunteers, Papapoulus et al.
  peak 1,25-dihydroxyvitamin D serum concentrations: 0.235 nM and 0.351 nM
[9]; 4 mcg per day for 4 days, postmenopausal women, no clinically significant hypercalcemia, Geusens et al.
  patients with a serum calcium above 10.8: Four of the 27
[9]; 32 mcg/day for 3 months, patients with osteopetrosis, no hypercalcemia, Key et al.
  peak of stable serum levels of 1,25-dihydroxyvitamin D: 2.32 nM
[9]; in vivo
  duration of hypercalcemic effect: 3 to 5 days
  serum half life: 3 to 6 h
  time after administration at which intestinal absorption of calcium begins to increase: 2 h
  time of maximal hypercalcemic effect: 10 h
[9]; replacement therapy doses
  time at which peak serum concentration is reached: 2 h
[9]; [10]
  peak 1,25-dihydroxyvitamin D serum concentrations: 0.42 nM
  serum calcium: no elevation in serum calcium
[9]; up to 2.7 mcg/day for 7 to 15 days, normal volunteers, Brickman et al.
  serum calcium: no significant elevations in serum calcium were observed
[9]; up to 3 mcg/day for 6-12 days, normal volunteers, Adams et al.
  stable 1,25-dihydroxyvitamin D serum levels: 0.184 to 0.235 nM
[9]; up to 3 mcg/day for 6-12 days, patients on a low calcium diet, Adams et al.
  elevation in serum calcium: None of the patients
Ovarian cancer
  hypercalcemia: encountered hypercalcemia
